The text below walks through data of article PMC9848259 (Journal of Enzyme Inhibition and Medicinal Chemistry, 2023).

Read-outs that look alike come from different tables or passages of the source.

In data set [1] the target is T1, AChE (from the electric eel) (Electrophorus electricus, UniProt O42275).
T1 construct: purchased Sigma Aldrich
Kind of data set: biochemical.
Method: The capacity of the novel cyclopentaquinoline hybrids to inhibit AChE (from the electric eel) and BuChE (from equine serum) were determined by the modified colorimetric Ellman’s method[38]^,[39]. Both enzymes, DTNB – Ellman’s reagent (5,5′-dithiobis-(2-nitrobenzoic acid)), acetyltiocholine iodide (ATCI) were obtained from Sigma Aldrich. AChE and BuChE samples in phosphate buffer (PBS) pH 8.0 were incubated in 96-well plates in the presence of the substrate (ATCI), 76 µl of DTNB and the tested compound at various concentration at room temperature for 10 min (AChE) or eight minutes (BuChE).

The next data set relates to SH-SY5Y cells. Kind of data set: Neuroprotection against rotenone/oligomycin A, pre-incubation, MTT test. Type of data set: cell-based, human. As to conditions: Rotenone/Oligomycin A 30/10 µM. Background: Tetrazolium dyes change colour on reduction, which living cells bring about.
The nature of another data set: in vitro. Type of data set: cell-based. As to conditions: human, human hepatic stellate cells (HSCs), read-out: cell viability (hepatotoxicity, MTT). As for the experimental part:
Human hepatic stellate cells (HSCs, Sciencell) were grown in the Stellate Cell Medium (Sciencell) supplemented with 2% Foetal Bovine Serum (Sciencell), 1% Stellate Cell Growth Supplement (Sciencell) and 1% penicillin/streptomycin solution (Sciencell). The cells were cultured in the incubator at 37 °C and 5% CO2. To start the experiment, the cells were seeded at a density of 5 × 10^3 cells/well in 96-well plates and incubated (37 °C, 5% CO2) for 24 h. After incubation, medium was removed from the wells and the cells were exposed to 100 µl of the compound over a range of concentrations (from 0.1 to 10 µM) or 100 µl of culture medium alone (blank control). The cells were then further incubated for 24 h. After this time, the medium was removed, the cells were washed with PBS and 50 µl of MTT solution (0.75 mg/ml) was added to each well. The plates were incubated in the dark at 37 °C for another two hours. The MTT solution was then removed from the wells and 100 µl of DMSO was added. The plates were incubated at room temperature for 10 min and then 5 µl of Sorensen Buffer was added to each well. The plates were swayed and the absorbance at 570 nm was measured with a microplate reader (Synergy H1, BioTek, Winooski, VT, USA). The cell viability was expressed as a percentage of the control values (blank control)[40]^,[46]^,[47].

Another data set addresses T2, Aβ42 (Homo sapiens, UniProt P05067).
T2 construct: expressed in transfected cells; host or cells: Escherichia coli BL21 (DE3), pET vector
Kind of data set: In cellulo β-amyloid assay, Th-S fluorescence in E. coli over-expressing Aβ42. As to conditions: read-out: anti-amyloid (inhibition) capacity for Aβ42. It is filed as cell-based, Escherichia coli.

The nature of data set [2]: pKa assay (spectrophotometric). It is filed as physicochemical. The conditions noted are these: potassium phosphate buffer series with methanol, 23 °C. As for the experimental part: Potassium dihydrogen phosphate, potassium hydroxide and methanol (POCH) were used to prepare the buffer solution, as described previously. […]. The pH was measured in 23 °C by using a Mettler Toledo FiveEasy pH metre with a LE438 Lab pH electrode (Mettler Toledo). Our tested compound solution was 5 µM solution in methanol: water (1:1) mix.
Spectrophotometric measurement was performed in a 96-well plate using a Synergy H1 microplate reader (BioTek) with Gen5 software (BioTek). The full assay consisted of 35 UV spectrum measurements, one for each work buffer solution. For the assay, 180 μL sequent work buffer and 20 μL tested compound solution were added to each of 35 wells. For the blank, 200 μL sequent work buffer alone was added to each of 35 wells. The measurement was performed at 23 °C. The spectra were recorded from 280 nm to 380 nm in 1 nm steps. Concentrations were calculated based on the 332/343 nm and 343/332 nm ratio as described previously. The results were compared with computer calculations of pKa value obtained using chemicalize.com online software (ChemAxon 2018) and ACD/Percepta version 14.0.0 (Advanced Chemistry Development, Inc., Metropolitan Toronto, Canada).

The next data set deals with DNA. Kind of data set: DNA damage. The conditions noted are these: any tested concentration.

T1 sequence (O42275 24-633): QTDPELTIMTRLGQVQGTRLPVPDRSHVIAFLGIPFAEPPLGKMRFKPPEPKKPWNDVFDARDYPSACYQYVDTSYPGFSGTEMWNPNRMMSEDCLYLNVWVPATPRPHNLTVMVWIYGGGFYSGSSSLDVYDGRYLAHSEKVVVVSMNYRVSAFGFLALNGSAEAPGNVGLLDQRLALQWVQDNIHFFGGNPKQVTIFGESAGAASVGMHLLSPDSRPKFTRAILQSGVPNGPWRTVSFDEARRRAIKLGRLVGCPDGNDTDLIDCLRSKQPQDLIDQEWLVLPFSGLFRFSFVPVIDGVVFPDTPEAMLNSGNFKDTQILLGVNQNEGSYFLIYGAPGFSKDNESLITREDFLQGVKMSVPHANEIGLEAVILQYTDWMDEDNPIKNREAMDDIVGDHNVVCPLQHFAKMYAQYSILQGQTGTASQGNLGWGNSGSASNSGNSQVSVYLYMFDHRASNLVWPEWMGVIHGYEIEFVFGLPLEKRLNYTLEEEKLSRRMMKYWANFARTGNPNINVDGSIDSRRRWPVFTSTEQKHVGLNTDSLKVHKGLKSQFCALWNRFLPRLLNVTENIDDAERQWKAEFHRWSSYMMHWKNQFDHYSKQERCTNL
T2 sequence (P05067 672-713): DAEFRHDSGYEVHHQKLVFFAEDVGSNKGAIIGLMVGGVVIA
Method for Aβ42: Inhibition assay in Escherichia coli cells over-expressing amyloid proteins. […] Escherichia coli competent cells BL21 (DE3) were transformed with the required pET vectors carrying the DNA sequence of Aβ42 peptide. Because of the addition of the initiation codon ATG in front of genes, the over-expressed Aβ42 contains an additional methionine residue at their N terminus. For overnight culture preparation, a colony of BL21 (DE3) bearing the plasmid to be expressed was inoculated in 10 ml of M9 minimal medium containing 50 μg/ml of kanamycin at 37 °C. […] The bacterial culture was then grown at 37 °C, with orbital agitation of 250 rpm. When the cell density reached OD600nm–0.6, 980 μL of the culture were transferred into 1.5 ml conical tubes containing 10 μL of the compound to be tested dissolved in DMSO, and 10 μL of 100 mM isopropyl 1-thio-β-D-galactopyranoside (IPTG). The final concentration of the compound was set to 10 μM. The samples were grown overnight at 37 °C under agitation at 1400 rpm, using a Thermomixer (Eppendorf, Hamburg, Germany). […]
The fluorescence normalisation was carried out considering as 100% the Th-S fluorescence of the bacterial cells expressing Aβ42 in the absence of drug, and 0% the Th-S fluorescence of the bacterial cells non-expressing Aβ42 (in absence of the protein production inductor, IPTG). […]

Usually IC50 stands for the midpoint of a concentration-inhibition curve. Lower therefore signals higher potency. Usually viability stands for a read-out of living cells in per cent, often relative to untreated cells. The inhibition is the change of the read-out against control, counted positive when it falls. With `O=C(NCCCCCCNc1c2c(nc3ccccc13)CCC2)c1cc(Cl)cc(Cl)c1` [Compound 3e], the “Selectivity for AChE” value in data set [1] (IC50(BuChE)/IC50(AChE)) came to 0.89. The compound also gave a 50% inhibitory concentration (IC50) in data set [1] (means ± SD of three experiments) of 0.131 ± 0.016 µM. For the same compound, the “% neuroprotection” value in the data set on SH-SY5Y cells (compound 0.0001 µM) came out at 17.64%; with SH-SY5Y cells (compound 0.001 µM), 12.46%; in the data set on SH-SY5Y cells (compound 0.01 µM) it was 7.65%; with SH-SY5Y cells (compound 0.1 µM), 2.41%. For the same compound, in the data set “in vitro” (0.1 µM), the viability at 24 h, 0.1 µM is 102%. Besides, in “in vitro” (1 µM), the viability at 24 h, 1 µM was 100%. In addition, the viability at 24 h, 10 µM in the data set “in vitro” (10 µM) stood at 97.3%. Besides, on Aβ42, the inhibition at 10 µM was determined as 52.4%. The pKa in data set [2] (read-out: pKa1 Experimental) was found to be 8.4; in data set [2] (read-out: pKa2 Experimental) it was 11.3. The DNA damage result in the data set with DNA is “did not induce DNA damage”.
